The text below walks through data of patent US11813277B2, “Methods and agents for modulating inflammation” (The Regents of the University of California, priority 2018, dated 2023).

Assay [1] has as its system phosphate (Pi) transporter. The assay can be described thus: Phosphate transporter assay (mitochondrial swelling). It is filed as biochemical, rat. The following applies: 250 μM etomoxir, 100 μM NEM, 10 μM mersalyl. Here is the method:
Phosphate transport was measured by monitoring swelling of de-energized mitochondria in isotonic potassium phosphate medium based upon principles described by Coty, W. A. and Pedersen, P. L. (1975) Phosphate transport in rat liver mitochondria. Kinetics, inhibitor sensitivity, energy requirements, and labeled components. Mol Cell Biochem. 9, 109-24. As the phosphate carrier acts as electroneutral symporter with protons, the process is self-restricting due to generation of an opposing pH gradient. […] In the presence of nigericin, the proton fluxes cycle resulting in electro- and pH-neutral transport of potassium phosphate down its concentration gradient into the mitochondrial matrix, resulting in osmotic accumulation of water. Under these conditions, transport is limited by the activity of phosphate carrier, and can be recorded as mitochondrial swelling (a decrease in light scattering).
The measurements were performed in an LS-50B spectrofluorometer (Perkin-Elmer) at 540 nm. Assay medium contained 125 mM potassium phosphate, pH 7.2, 0.5 mM EGTA, and 2 μM rotenone. Mouse liver mitochondria (0.5 mg/ml) were treated with 250 μM etomoxir, 100 μM N-ethylmaleimide (NEM) (Klingenberg, M., Durand, R., and Guerin, B. (1974) Analysis of the reactivity of SH-reagents with the mitochondrial phosphate carrier. Eur J Biochem, 42, 135-150) or 10 μM mersalyl (Paradies, G. and Ruggiero, F. M. (1991) Effect of aging on the activity of the phosphate carrier and on the lipid composition in rat liver mitochondria. Arch Biochem Biophys. 284, 332-337) and the reaction was started with 5 μM nigericin. Typical traces from 3 experiments are shown. To establish the maximally swollen state of mitochondria, 80 μg/ml alamethicin was used.

The test system of the next assay is BMDMs. The assay can be described thus: Mass spectrometry-based metabolomics of BMDMs. The conditions noted are these: IL-4. It is filed as cell-based, mouse. Here is the method:
Cell. 173, 470-484. Briefly, cells were seeded in 6-well dishes at 1×10^6 cells/well. Cells were treated with IL-4 with and without etomoxir co-treatments (3 μM or 200 μM) similarly to other experiments. To extract intracellular metabolites, cells were briefly rinsed with cold 150 mM ammonium acetate (pH 7.3), followed by addition of 1 ml cold 80% MeOH on dry ice. Cells were detached with cell scrapers and suspensions transferred into centrifuge tubes. After rigorous mixing, the suspension was pelleted by centrifugation (1.3×104 rpm, 4° C.). The supernatant was transferred into a glass vial, metabolites were dried down under vacuum, and resuspended in 50% (v/v) acetonitrile including heavy isotope-labeled amino acids as internal standards (Chen, W. W., Freinkman, E. and Sabatini, D. M. (2017) Rapid immunopurification of mitochondria for metabolite profiling and absolute quantification of matrix metabolites. Nat. Protoc. 12, 2215-2231).
For the mass spectrometry-based analysis of the sample, 5 μL were injected onto a Luna NH2 (150 mm×2 mm, Phenomenex) column. The samples were analyzed with an UltiMate 3000RSLC (Thermo Scientific) coupled to a Q Exactive mass spectrometer (Thermo Scientific). The Q Exactive was run with polarity switching (+3.50 kV/−3.50 kV) in full scan mode with an m/z range of 65-975. Separation was achieved using A) 5 mM NH4AcO (pH 9.9) and B) ACN. The gradient started with 15% A) going to 90% A) over 18 min, followed by an isocratic step for 9 min and reversal to the initial 15% A) for 7 min. Metabolites were quantified with El Maven (v0.2.4) using accurate mass measurements (≤3 ppm) and retention times of pure standards. Data analysis was performed using the statistical language R. For the PCA and clustering analyses, only metabolites with an ANOVA p-value≤0.05 were incorporated. For visualization using heatmaps, metabolites were scaled across samples but not across metabolites. To assess what metabolites contributed the most to a given metabolic phenotype, we calculated the correlation between the loading vector for a given metabolite and the score vector of a given sample for PCs 1 and 2.

On to `CCOC(=O)[C@@]1(CCCCCCOc2ccc(Cl)cc2)CO1` [etomoxir], for which, in assay [1], the “Pi transporter activity (rate of swelling)” value is given as “does not inhibit”. For the same compound, the “Pi transporter activity (rate of swelling)” value in assay [1] (listed as Etomoxir) is listed as “does not affect the rate of swelling”. Also, in the assay on BMDMs (3 μM etomoxir), the intracellular pantothenate levels entry is listed as “no change” and the “metabolite profile (PCA)” value is reported as “no appreciable change”. In addition, in the assay with BMDMs (200 μM etomoxir), the “intracellular pantothenate levels, increase” value is “three-fold” and the “metabolite composition (PCA)” value is recorded as “profound change”.
